Reference: paper PMC10733463, “Berberine-microbiota interplay: orchestrating gut health through modulation of the gut microbiota and metabolic transformation into bioactive metabolites” (Frontiers in Pharmacology, 2023)

Key:
[1] = UPLC-MS/MS quantification of berberine and metabolites in ileal and caecal content; assay type: in vivo, Ross 308 broiler chickens; conditions: 21 days
Description: (§1) The study was undertaken following the guidelines of the ethics committee of the Faculty of Veterinary Medicine and Bioscience Engineering, Ghent University, in accordance with the EU Directive 2010/63/EU. One-day-old Ross 308 male broilers were obtained from a local hatchery and housed in pens on wood shavings. They were allotted into 4 groups, with three replicate pens per group each housing 8 chickens. The animals were not vaccinated. Water and commercial starter feed (day 1–12, FARM 1 Mash, Country’s Best, Versele Laga, Deinze, Belgium) or grower (day 13–21, FARM 2 mash, Country’s Best, Versele Laga, Deinze, Belgium) were provided ad libitum. The control group received the standard non-supplemented diets, whereas the chickens in other groups were fed the same feed supplemented with 0.1, 0.5 or 1 g berberine/kg feed throughout the whole trial period. At day 21, 4 birds per pen were weighted then euthanized by sodium pentobarbital injection for sampling. Individual jejunal, ileal, caecal and colonic contents were stored at −20°C for microbiota composition analysis (16S rRNA gene sequencing). Additionally, ileal and caecal content samples were collected and stored at −20°C for berberine and berberine-derived metabolite quantification. Duodenal tissue samples were collected and fixed in 4% phosphate buffered formaldehyde for histological analysis. Blood samples were collected in heparin tubes and centrifuged at 524 g for 10 min to recover the plasma fraction, which was further mixed with 17 mg/mL L-ascorbic acid for dihydroberberine stabilization, and stored at −20°C for berberine and berberine-derived metabolite quantification.
(§2) The column temperature was maintained at 25°C. The autosampler temperature was set at 10°C.
250 mg of ileal or caecal content was weighed in a 15 mL polypropylene centrifuge tube and 250 µL of ascorbic acid 170 mg/mL solution was added for stabilization of dihydroberberine, followed by brief vortexing. Subsequently, 25 µL of an internal standard solution containing 250 μg/mL of berberine-d6 and 2.5 μg/mL tetrahydropalmatine were added, followed by brief vortexing. A 2.5 mL volume of extraction solvent was then added, consisting of a 1% (v/v) formic acid solution in methanol. The sample was put on a rotary shaker set at 80 rpm for 20 min, followed by centrifugation (3,720 g, 10 min, 4°C). The supernatant was then diluted, by a factor 5 for measurement of low abundance components, and by a factor 2,000 for measurement of high abundance components. The 1/5 diluted sample extract was prepared directly in an autosampler vial as follows: 200 µL sample extract were mixed with 100 µL ascorbic acid 170 mg/mL solution and 700 µL Milli-Q water. For the 1/2,000 diluted sample extract, an intermediate 1/100 sample dilution was prepared by combining 500 µL sample extract and 49.5 mL of Milli-Q water. 50 μL was then transferred in an autosampler vial followed by the addition of 950 µL of Milli-Q water. For both dilutions, a 5 µL sample aliquot was injected onto the UPLC-MS/MS apparatus. Quantification was based on the ratio of the analyte peak area compared to the peak area of the internal standard tetrahydropalmatine for 1/5 diluted sample extracts, and on the ratio of the analyte peak area compared to the peak area of the internal standard berberine-d6 for 1/2,000 diluted sample extracts.
Calibration standards and quality control samples were prepared as follows: 250 mg of blank ileal or caecal content were supplemented with 250 µL of ascorbic acid 170 mg/mL solution, 25 µL mixed solution of berberine and metabolites (with the exception of dihydroberberine) at different levels, 25 µL of dihydroberberine solution, stabilized with 17 mg/mL ascorbic acid, at different levels and 25 µL of an internal standard solution containing 0.625 μg/mL of berberine-d6 and 2.5 μg/mL tetrahydropalmatine. The calibration curve was in the 62.5–5,000 ng/g range, and included 62.5, 125, 250, 500, 1,000, 2,500, and 5,000 ng/g levels. […]

caecal microbiota = test: SCFA quantification in caecal microbiota cultures supplemented with berberine or berberrubine; assay type: cell-based, broiler chicken; conditions: 24 h
Experimental: As berberine and its demethylated metabolites correlated with SCFAs in vivo, their ability to directly influence SCFA metabolism was assessed in vitro. […] Cultures were centrifuged at 3,724 g for 5 min 1 mL 1:2 diluted supernatant in Milli-Q water was used for SCFA analysis. Acetate, propionate and butyrate were quantified using the GC-FID method described by ([De […] et al., 2010]). This method involves the extraction of SCFA from samples with diethyl ether after the addition of 2-methyl hexanoic acid as an internal standard.

B. coccoides (DSM 935) = conditions: Blautia coccoides, 10 µg/mL, pH 6
[2] = UPLC-MS/MS quantification of berberine and metabolites in plasma; assay type: in vivo, Ross 308 broiler chickens; conditions: lowest berberine supplementation level (0.1 g/kg feed)
Description: as §1, §2
A 137.5 µL plasma sample containing 17 mg/mL L-ascorbic acid was used for sample extraction. The ascorbic acid solution was added to prevent oxidation of dihydroberberine to berberine during sample storage ([Feng et al., 2015]). The plasma sample was transferred to an OstroTM 96 well-plate (25 mg) (Waters). Subsequently, 50 µL Milli-Q water and 25 µL of an internal standard solution containing 100 ng/mL of both berberine-d6 and tetrahydropalmatine were added. A 640 µL volume of 1% (v/v) formic acid solution in acetonitrile (1/3 ratio) was added, followed by gentle mixing. Vacuum was applied on the Ostro™ plate for 5 min and the eluate was collected in a 2 mL square 96-well collector plate. The sample was transferred in a glass tube and evaporated at 40°C under a gentle stream of nitrogen in a Pierce (Rockford, United States) Reacti-Therm III™ Heating Module and Reacti-Vap™ III Module. The dried sample extract was reconstituted in 500 µL Milli-Q water, followed by injection of a 5 µL sample aliquot onto the UPLC-MS/MS apparatus. Quantification was based on the ratio of the analyte peak area compared to the peak area of the internal standard berberine-d6.
Calibration standards and quality control samples were prepared as follows: 137.5 µL of blank plasma stabilized with 17 mg/mL L-ascorbic acid were supplemented with 25 µL mixed working solutions of berberine and metabolites (except dihydroberberine) at different levels, 25 µL of dihydroberberine working solution, stabilized with 17 mg/mL L-ascorbic acid, at different levels and 25 µL of an internal standard solution containing 100 ng/mL of both berberine-d6 and tetrahydropalmatine. The calibration curve was in the 0.1–100 ng/mL range, including 0.1, 0.5, 1, 2.5, 5, 10, 25, […], 50 and 100 ng/mL levels.
The UPLC-MS/MS analysis method for the quantification of berberine and berberine-derived metabolites both in plasma and ileal/caecal intestinal content was validated to the guidelines of the European Medicines Agency, i.e., of the Committee for Veterinary Medicinal Products (EMEA/CVMP/VICH/463202/2009) and of the Committee for Medicinal Products for Human Use (EMEA/CHMP/EWP/192217/20), and in accordance with the EU Directive 2002/657/EC. […]

Ratio caecum / ileum (concentration) ([1]; 0.1 g berberine/kg feed) | Ratio caecum / ileum (concentration) ([1]; 0.5 g berberine/kg feed) | Ratio caecum / ileum (concentration) ([1]; 1 g berberine/kg feed) | Log2(fold change) of metabolite response at 48 h, B. coccoides pure culture over berberine-medium (B. coccoides (DSM 935)) | Quantification in plasma [2] | SMILES | SCFA production in caecal microbiota cultures (caecal microbiota; 25, 2.5 µM) | Concentrations of acetate, butyrate and propionate in caecal microbiota cultures (caecal microbiota; higher concentration (2.5 µM))
21.43 | 29.98 | 63.80 | 1.96 | could also not be quantified | COc1ccc2cc3[n+](cc2c1O)CCc1cc2c(cc1-3)OCO2 [Berberrubine, berberrubine chloride] | – | increased
0.31 | 0.49 | 0.72 | -2.05 | could also not be quantified | COc1cc2c(cc1O)CC[n+]1cc3c(OC)c(OC)ccc3cc1-2 [Jatrorrhizine, Jatrorrhizine chloride] | – | –

SMILES | Ratio caecum / ileum (concentration) ([1]; 0.1 g berberine/kg feed) | Ratio caecum / ileum (concentration) ([1]; 0.5 g berberine/kg feed) | Ratio caecum / ileum (concentration) ([1]; 1 g berberine/kg feed) | Log2(fold change) of metabolite response at 48 h, B. coccoides pure culture over berberine-medium (B. coccoides (DSM 935)) | Quantification in plasma [2] | SCFA production in caecal microbiota cultures (caecal microbiota; 25, 2.5 µM) | Concentrations of acetate, butyrate and propionate in caecal microbiota cultures (caecal microbiota; higher concentration (2.5 µM))
COc1ccc2cc3[n+](cc2c1OC)CCc1cc2c(cc1-3)OCO2 [Berberine, Berberine chloride] | 0.07 | 0.14 | 0.22 | – | – | did not significantly affect | –
